Publication PMC12410356 (International Journal for Parasitology: Drugs and Drug …, 2025)
Where two headings read alike, the source gives them in different places.

System: Reuber rat hepatoma (RH) cells
Assay: Mammalian cell toxicity, resazurin assay
Type: cell-based
Conditions: for IC50: 5 days incubation, mean ± SD
Description: Mammalian cell toxicity on RH cells was measured as described in [Rufener et al. (2018)] with few alterations. Briefly, confluent (50′000 cells/well) and pre-confluent (5′000 cells/well) were seeded into 96-well plates in DMEM supplemented with 10 % FBS, penicillin (100 U/mL), streptomycin (100 μg/mL) and tetracycline (5 μg/mL) and incubated at 37 °C under a humid, 5 % CO2 atmosphere for 24 h and 5 h respectively. Alexidine, ESI-09 and MMV1581545 were added to final concentrations ranging from 120 to 0.49 μM (1:3 serial dilution) to each well and then cells were incubated at 37 °C under a humid, 5 % CO2 atmosphere for 5 days. To measure viability, the medium was removed, 180 μL of PBS was added to the cells and resazurin was added to each well to a final concentration of 10 mg/L. The cells were then allowed to process the resazurin at RT for 1 h. Fluorescence was measured on a HIDEX Sense microplate reader. Measurements were performed in triplicates and IC50 values were calculated in R using the three parameter Weibull type 1 model for three independent experiments ([Ritler et al., 2020]).

CC(C)(C)c1cc(C(=O)/C(C#N)=N/Nc2cccc(Cl)c2)no1 [ESI-09]
toxicity against mammalian cell line (in words) (RH cells counter-screen): moderate toxicity
IC50 (Rattus norvegicus, 120 h, confluent, read-out: IC50 confluent RH cells): 37.3 ± 0.73 µM
IC50 (Rattus norvegicus, 120 h, pre-confluent, read-out: IC50 pre-confluent RH cells): 9.02 ± 1.3 µM
IC50 (pre-confluent, read-out: IC50 pre-confluent RH cells): 9.03 ± 1.3 µM
